Assay results published in patent US10758467B2, “Highly substantive water-soluble UV absorbers and process for preparation thereof” (GALAXY SURFACTANTS LTD., priority 2018, dated 2020).

Legend:
[1] = UV absorption (molar extinction coefficient); format: physicochemical
[2] = system: Propionibacterium acnesMTCC 1951; experiment: Minimum growth inhibitory concentration; format: cell-based, Propionibacterium acnes
Description: (§1) The doubly quaternized UV absorbers of Formula I (R═C8H17 to C22H45) according to the invention show decent antimicrobial properties. The minimum growth inhibitory concentrations against G +ve, G −ve bacteria and against the yeast for two compounds of Formula I of Example 3 and Example 4 are given in the Table III. This antimicrobial property is useful for preservation of personal care formulations. The antimicrobial activity against dandruff causing microorganism, Malassezia furfur is useful for hair care applications.

[3] = system: Candida albicans ATCC 10231; experiment: Minimum growth inhibitory concentration; format: cell-based
Description: as §1

[4] = system: Escherichia coli ATCC 10142; experiment: Minimum growth inhibitory concentration; format: cell-based
Description: as §1

[5] = system: Malassezia furfur MTCC 1374; experiment: Minimum growth inhibitory concentration; format: cell-based
Description: as §1

[6] = system: Pseudomonas aeruginosa Immune type IV; experiment: Minimum growth inhibitory concentration; format: cell-based
Description: as §1

[7] = system: Staphylococcus aureus ATCC6538; experiment: Minimum growth inhibitory concentration; format: cell-based
Description: as §1

[8] = Surface-active properties (surface tension of water, CMC); format: physicochemical
Description: They reduce the surface tension of water from 72 Mn/m to 35 Mn/m at 1.0% concentration, at 30° C. These quaternized UV absorbers behave like cationic surface active agents and can be easily titrated against an anionic surfactant as a standard for two-phase titration for the determination of active matter.
Critical micelle concentration at 25° C. is 2.29×10^−3 mM

[9] = Zeta potential (Zetasizer Nano, Malvern) and charge density; format: physicochemical; conditions: for Zeta potential: 1% dispersion
Description: Zeta potential of 1% dispersion of doubly quaternized UV absorber, Formula I, R═C18H37 and R1═OCH3 is found to be […] (Zetasizer Nano, Malvern). […] Also the high zeta potential (+46 mV) ensures the stability of colloidal formulations.
Molar extinction coefficient, ∈, in water: 19,700 mol^−1cm^−1 at 307 nm. Zeta potential: +46 mV, Charge density: 0.3066 meq/gram

Structure (SMILES) | minimum growth inhibitory concentration [2] [%] | minimum growth inhibitory concentration [3] [%] | minimum growth inhibitory concentration [4] [%] | minimum growth inhibitory concentration [5] [%] | minimum growth inhibitory concentration [6] [%] | minimum growth inhibitory concentration [7] [%] | further results
COc1ccc(C=CC(=O)NCCCN(C)C)cc1 [Example 1, p-methoxycinnamido propyldimethylamine] |  |  |  |  |  |  | Molar extinction coefficient, ∈ ([1]; in methanol, at 290 nm): 24,224
COc1ccc(C=CC(=O)NCCC[N+](C)(C)CC(O)C[N+](C)(C)C)cc1.[Cl-].[Cl-] (stereo not shown) [Example 2, p-methoxy cinnamidopropyl (2-hydroxypropyl trimethyl ammonium chloride) dimonium chloride] |  |  |  |  |  |  | Molar extinction coefficient, ∈ ([1]; in water, at 290 nm): 22,000 mol^−1cm^−1
CCCCCCCCCCCC[N+](C)(C)CC(O)C[N+](C)(C)CCCNC(=O)C=Cc1ccc(OC)cc1.[Cl-].[Cl-] (stereo not shown) [Example 3, p-methoxy cinnamidopropyl (2-hydroxypropyl lauryl dimethyl ammonium chloride) dimonium chloride] | 0.5 | 0.3 | 0.4 | 0.5 | 0.4 | 0.3 | Molar extinction coefficient, ∈ ([1]; in water, at 305 nm): 19,500 mol^−1cm^−1
CCCCCCCCCCCCCCCCCC[N+](C)(C)CC(O)C[N+](C)(C)CCCNC(=O)/C=C/c1ccc(OC)cc1 (stereo not shown) [Example 4, p-methoxy cinnamidopropyl (2-hydroxypropyl stearyl dimethyl ammonium chloride) dimonium chloride] | 0.4 | 0.3 | 0.3 | 0.6 | 0.4 | 0.2 | Surface effectiveness [8]: 34.2 mN/m; surface efficiency (−log C20) [8]: 6.23; Critical micelle concentration ([8]; at 25° C.): 0.00229 mM; Charge density [9]: 0.3066 meq/gram; Zeta potential [9]: +46 mV; Zeta potential ([9]; listed as Formula I, R═C18H37 and R1═OCH3): +47 mV; Molar extinction coefficient, ∈ ([1]; in water, at 307 nm): 19,700 mol^−1cm^−1
